Assay results as given in patent publication US11000033B2, “Ketone or oxime compound, and herbicide” (NISSAN CHEMICAL CORPORATION, priority 2014, dated 2021).

Legend:
Type in all cases: in vivo
corn = test: Test Example 5: effect on crop by foliage application, plastic box (symbol c); settings: 320 g/ha, 3 weeks after application
Outline: (§1)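 Sterilized diluvial soil, plastic box (21 × 13 × 7 cm); spot sowing, ~1.5 cm soil cover; greenhouse 25–30° C.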

[1] = system: Echinochloa oryzacola Vasing.; test: Test Example 1: herbicidal activity, application before weed generation in submerged conditions (symbol A); settings: application herbicide amount 320 g/ha
Outline: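 Weeds are sown into submerged alluvial soil alongside transplanted 2.5-leaf rice, and the compound, as an emulsion diluted to a set rate, is applied onto the water before emergence. Rating on the 0–5 herbicidal-ratio scale follows 3 weeks of greenhouse growth at 25–30 °C.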

Setaria viridis = test: Test Example 5: herbicidal effect by foliage application, plastic box (symbol G); settings: 320 g/ha, 3 weeks after application
Outline: (§2)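 Seeds were sown in sterilized diluvial soil, covered with about 1.5 cm of soil and grown 14 days in a greenhouse at 25° C. to 30° C. An emulsifiable formulation diluted in water to a set rate was sprayed over foliage, and injury was scored 3 weeks later.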

soybean = test: Test Example 5: effect on crop by foliage application, plastic box (symbol d); settings: 320 g/ha, 3 weeks after application
Outline: as §1

[2] = system: Echinochloa crus-galli var. crus-galli; test: Test Example 4: herbicidal effect by soil treatment (symbol H); settings: application herbicide amount 320 g/ha
Outline: (§3)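 Seeds were sown in sterilized diluvial soil, covered with about 1.5 cm of soil, and the soil surface was sprayed with a water-diluted emulsion of the compound at a predetermined rate. Plants grew in a greenhouse at 25° C. to 30° C.; effects were scored visually 3 weeks after application.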

transplanted rice plant = test: Test Example 1: effect on crop, application before weed generation in submerged conditions (symbol a); settings: application herbicide amount 320 g/ha
Outline: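 Alluvial soil pots flooded to 4 cm water, sown with Echinochloa oryzacola, Scirpus juncoides and Monochoria vaginalis, then transplanted with 2.5 leaf stage rice seedlings; pre-emergence application. Greenhouse 25° C. to 30° C.; scored 0–5 by herbicidal ratio 3 weeks after application.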

Cyperus difformis = test: Test Example 3: herbicidal effect by foliage application, Wagner pot (symbol E); settings: application herbicide amount 320 g/ha
Outline: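 Foliar spray of water-diluted emulsion formulation at a predetermined herbicide amount onto 14-day-old plants in flooded alluvial soil (water depth 0.1–0.5 cm), greenhouse 25–30 °C; rice sown alongside. Scored 3 wk post-application on set criteria.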

Veronica persica = test: Test Example 4: herbicidal effect by soil treatment (symbol R); settings: application herbicide amount 320 g/ha
Outline: as §3

Chenopodium album = test: Test Example 4: herbicidal effect by soil treatment (symbol O); settings: application herbicide amount 320 g/ha
Outline: as §3

Scirpus juncoides = test: Test Example 2: herbicidal activity, application during weed generation in submerged conditions (symbol B); settings: Table 23; application herbicide amount 320 g/ha; grade 0-5 by criteria of Test Example 1
Outline: (§4)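 Paddy pot test, submerged (4 cm water), alluvial soil, mixed sowing; greenhouse 25–30° C. Emulsion formulation diluted to predetermined rate, applied onto floodwater at 1–2 leaf stage. Visual herbicidal rating at 3 wk post-treatment.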

Monochoria vaginalis = test: Test Example 2: herbicidal activity, application during weed generation in submerged conditions (symbol C); settings: Table 23; application herbicide amount 320 g/ha; grade 0-5 by criteria of Test Example 1
Outline: as §4

Abutilon theophrasti = test: Test Example 4: herbicidal effect by soil treatment (symbol M); settings: application herbicide amount 320 g/ha
Outline: as §3

Amaranthus retroflexus = test: Test Example 5: herbicidal effect by foliage application, plastic box (symbol N); settings: 320 g/ha, 3 weeks after application
Outline: as §2

| SMILES | c: corn, effect on crop (criteria of Test Example 1) (corn) | Herbicidal effect grade, A: Echinochloa oryzacola Vasing. [1] | G: Setaria viridis, herbicidal effect (criteria of Test Example 1) (Setaria viridis) | d: soybean, effect on crop (criteria of Test Example 1) (soybean) | Herbicidal effect grade, H: Echinochloa crus-galli var. crus-galli [2] | Effect grade on crop, a: transplanted rice plant (transplanted rice plant) | Herbicidal effect grade, R: Veronica persica (Veronica persica) | Herbicidal effect grade, O: Chenopodium album (Chenopodium album) | Herbicidal effect grade, B: Scirpus juncoides (Scirpus juncoides) | Herbicidal effect grade, C: Monochoria vaginalis (Monochoria vaginalis) | Herbicidal effect grade, M: Abutilon theophrasti (Abutilon theophrasti) | N: Amaranthus retroflexus, herbicidal effect (criteria of Test Example 1) (Amaranthus retroflexus) | herbicidal effect on E, grade 0-5 (Cyperus difformis) | H: Echinochloa crus-galli var. crus-galli, herbicidal effect grade [2] | R: Veronica persica, herbicidal effect grade (Veronica persica) | O: Chenopodium album, herbicidal effect grade (Chenopodium album) | M: Abutilon theophrasti, herbicidal effect grade (Abutilon theophrasti) | also measured |
| --- | --- | --- | --- | --- | --- | --- | --- | --- | --- | --- | --- | --- | --- | --- | --- | --- | --- | --- |
| COc1cc(Br)cc(C)c1C1=C(O)CC(CC(C)=O)C1=O (stereo not drawn) [7-027, 2-(4-bromo-2-methoxy-6-methylphenyl)-3-hydroxy-5-(2-oxopropyl)cyclopent-2-enone] | 5 (Herbicidal ratio of 90% or more (almost completely withered)) | 4 (Herbicidal ratio of 70% or higher and lower than 90%) | 5 (Herbicidal ratio of 90% or more (almost completely withered)) | 0 (Herbicidal ratio of 5% or lower (almost no effect)) | 5 (Herbicidal ratio of 90% or more (almost completely withered)) | 3 (Herbicidal ratio of 40% or higher and lower than 70%) | 0 (Herbicidal ratio of 5% or lower (almost no effect)) | 0 (Herbicidal ratio of 5% or lower (almost no effect)) | 0 (Herbicidal ratio of 5% or lower (almost no effect)) | 2 (Herbicidal ratio of 20% or higher and lower than 40%) | 0 (Herbicidal ratio of 5% or lower (almost no effect)) | 0 (Herbicidal ratio of 5% or lower (almost no effect)) | – | – | – | – | – | E herbicidal effect grade (Cyperus difformis; Table 24): 4 (Herbicidal ratio of 70% or higher and lower than 90%) |
| CON=C(C)CC1CC(O)=C(c2c(C)cc(-c3cc(Cl)cc(Cl)c3)cc2C)C1=O (stereo not drawn) [6-087] | 0 (Herbicidal ratio of 5% or lower (almost no effect)) | 5 (Herbicidal ratio of 90% or more (almost completely withered)) | 5 (Herbicidal ratio of 90% or more (almost completely withered)) | 3 (Herbicidal ratio of 40% or higher and lower than 70%) | 5 (Herbicidal ratio of 90% or more (almost completely withered)) | 2 (Herbicidal ratio of 20% or higher and lower than 40%) | 2 (Herbicidal ratio of 20% or higher and lower than 40%) | 0 (Herbicidal ratio of 5% or lower (almost no effect)) | 0 (Herbicidal ratio of 5% or lower (almost no effect)) | 0 (Herbicidal ratio of 5% or lower (almost no effect)) | 0 (Herbicidal ratio of 5% or lower (almost no effect)) | 0 (Herbicidal ratio of 5% or lower (almost no effect)) | 0 (Herbicidal ratio of 5% or lower (almost no effect)) | – | – | – | – | – |
| CON=C(C)CC1CC(O)=C(c2c(C)cc(-c3ccccc3)cc2OC)C1=O (stereo not drawn) [6-099] | 5 (Herbicidal ratio of 90% or more (almost completely withered)) | 5 (Herbicidal ratio of 90% or more (almost completely withered)) | 5 (Herbicidal ratio of 90% or more (almost completely withered)) | 4 (Herbicidal ratio of 70% or higher and lower than 90%) | 5 (Herbicidal ratio of 90% or more (almost completely withered)) | 5 (Herbicidal ratio of 90% or more (almost completely withered)) | 4 (Herbicidal ratio of 70% or higher and lower than 90%) | 4 (Herbicidal ratio of 70% or higher and lower than 90%) | 5 (Herbicidal ratio of 90% or more (almost completely withered)) | 5 (Herbicidal ratio of 90% or more (almost completely withered)) | 3 (Herbicidal ratio of 40% or higher and lower than 70%) | 4 (Herbicidal ratio of 70% or higher and lower than 90%) | 5 (Herbicidal ratio of 90% or more (almost completely withered)) | – | – | – | – | – |
| CON=C(C)CC1CC(O)=C(c2c(C)cc(Oc3ccccc3)cc2C)C1=O (stereo not drawn) [6-052] | – | 4 (Herbicidal ratio of 70% or higher and lower than 90%) | – | – | – | 3 (Herbicidal ratio of 40% or higher and lower than 70%) | – | – | 0 (Herbicidal ratio of 5% or lower (almost no effect)) | 0 (Herbicidal ratio of 5% or lower (almost no effect)) | – | – | 3 (Herbicidal ratio of 40% or higher and lower than 70%) | 4 (Herbicidal ratio of 70% or higher and lower than 90%) | 0 (Herbicidal ratio of 5% or lower (almost no effect)) | 0 (Herbicidal ratio of 5% or lower (almost no effect)) | 0 (Herbicidal ratio of 5% or lower (almost no effect)) | c: corn, effect on crop grade (corn): 3 (Herbicidal ratio of 40% or higher and lower than 70%); G: Setaria viridis, herbicidal effect grade (Setaria viridis): 5 (Herbicidal ratio of 90% or more (almost completely withered)); d: soybean, effect on crop grade (soybean): 0 (Herbicidal ratio of 5% or lower (almost no effect)); N: Amaranthus retroflexus, herbicidal effect grade (Amaranthus retroflexus): 0 (Herbicidal ratio of 5% or lower (almost no effect)) |
| CON=C(C)CC1CC(OCOC(=O)c2ccccc2)=C(c2c(C)cc(-c3ccc(Cl)cc3)cc2C)C1=O (stereo not drawn) [6-083] | 5 (Herbicidal ratio of 90% or more (almost completely withered)) | 5 (Herbicidal ratio of 90% or more (almost completely withered)) | 5 (Herbicidal ratio of 90% or more (almost completely withered)) | 0 (Herbicidal ratio of 5% or lower (almost no effect)) | – | 5 (Herbicidal ratio of 90% or more (almost completely withered)) | – | – | 3 (Herbicidal ratio of 40% or higher and lower than 70%) | 4 (Herbicidal ratio of 70% or higher and lower than 90%) | – | 3 (Herbicidal ratio of 40% or higher and lower than 70%) | 5 (Herbicidal ratio of 90% or more (almost completely withered)) | 0 (Herbicidal ratio of 5% or lower (almost no effect)) | 3 (Herbicidal ratio of 40% or higher and lower than 70%) | 0 (Herbicidal ratio of 5% or lower (almost no effect)) | 0 (Herbicidal ratio of 5% or lower (almost no effect)) | – |
| CON=C(C)CC1CC(OC(=O)COc2ccccc2)=C(c2c(C)cc(-c3ccc(Cl)cc3Cl)cc2C)C1=O (stereo not drawn) [6-092] | 2 (Herbicidal ratio of 20% or higher and lower than 40%) | 3 (Herbicidal ratio of 40% or higher and lower than 70%) | 5 (Herbicidal ratio of 90% or more (almost completely withered)) | 1 (Herbicidal ratio of 5% or higher and lower than 20%) | 3 (Herbicidal ratio of 40% or higher and lower than 70%) | 0 (Herbicidal ratio of 5% or lower (almost no effect)) | 0 (Herbicidal ratio of 5% or lower (almost no effect)) | 0 (Herbicidal ratio of 5% or lower (almost no effect)) | 0 (Herbicidal ratio of 5% or lower (almost no effect)) | 0 (Herbicidal ratio of 5% or lower (almost no effect)) | 0 (Herbicidal ratio of 5% or lower (almost no effect)) | 0 (Herbicidal ratio of 5% or lower (almost no effect)) | 4 (Herbicidal ratio of 70% or higher and lower than 90%) | – | – | – | – | – |
